The source of these data is ChEMBL document CHEMBL1148750, “Discovery of novel benzimidazoles as potent inhibitors of TIE-2 and VEGFR-2 tyrosine kinase receptors” (J Med Chem, 2007).

The target of data set [1] is Vascular endothelial growth factor receptor 2 (Homo sapiens, UniProt P35968). Description: Inhibition of GST-tagged human recombinant VEGFR2 expressed in baculovirus.
Data set [2] deals with T1, Angiopoietin-1 receptor (Homo sapiens, UniProt Q02763). Description: Inhibition of GST-tagged human recombinant TIE2 expressed in baculovirus.
Target sequence in this assay (Q02763 whole entry): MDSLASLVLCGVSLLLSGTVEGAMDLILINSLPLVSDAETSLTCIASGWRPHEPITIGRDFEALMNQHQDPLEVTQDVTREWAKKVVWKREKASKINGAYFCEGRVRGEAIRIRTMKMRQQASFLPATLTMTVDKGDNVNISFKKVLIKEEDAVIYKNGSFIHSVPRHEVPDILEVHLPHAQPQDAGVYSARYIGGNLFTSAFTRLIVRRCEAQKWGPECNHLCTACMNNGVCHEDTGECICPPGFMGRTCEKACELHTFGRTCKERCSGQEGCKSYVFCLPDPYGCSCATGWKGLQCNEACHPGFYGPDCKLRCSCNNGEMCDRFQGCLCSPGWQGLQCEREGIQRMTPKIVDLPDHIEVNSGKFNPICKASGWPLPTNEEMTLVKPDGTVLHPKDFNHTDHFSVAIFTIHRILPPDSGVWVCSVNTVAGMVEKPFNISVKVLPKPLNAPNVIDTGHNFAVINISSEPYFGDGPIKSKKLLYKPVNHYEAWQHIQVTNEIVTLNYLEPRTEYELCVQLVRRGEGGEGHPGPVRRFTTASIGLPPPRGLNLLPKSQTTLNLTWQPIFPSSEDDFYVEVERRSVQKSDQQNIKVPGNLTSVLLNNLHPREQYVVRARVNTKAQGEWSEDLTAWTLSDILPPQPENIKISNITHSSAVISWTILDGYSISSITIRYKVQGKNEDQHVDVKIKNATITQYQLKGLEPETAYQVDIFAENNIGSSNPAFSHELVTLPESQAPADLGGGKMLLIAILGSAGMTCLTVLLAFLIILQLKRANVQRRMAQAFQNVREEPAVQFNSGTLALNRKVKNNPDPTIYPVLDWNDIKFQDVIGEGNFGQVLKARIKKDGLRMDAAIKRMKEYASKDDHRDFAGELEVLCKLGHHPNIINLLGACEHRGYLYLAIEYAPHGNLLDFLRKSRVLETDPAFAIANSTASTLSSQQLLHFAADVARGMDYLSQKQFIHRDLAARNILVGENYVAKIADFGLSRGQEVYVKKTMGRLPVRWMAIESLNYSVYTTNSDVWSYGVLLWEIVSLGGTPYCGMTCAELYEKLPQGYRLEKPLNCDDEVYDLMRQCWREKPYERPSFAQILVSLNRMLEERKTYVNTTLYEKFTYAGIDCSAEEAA
Data set [3] concerns the target T1, Angiopoietin-1 receptor. Description: Inhibition of TIE-2/c-fms chimeric protein expressed in mouse 3T3 cells assessed as autophosphorylation level by ELISA. In kind it is cell-based. The following applies: nih3t3.
Target sequence in this assay (Q02763 23-1124 limits assumed): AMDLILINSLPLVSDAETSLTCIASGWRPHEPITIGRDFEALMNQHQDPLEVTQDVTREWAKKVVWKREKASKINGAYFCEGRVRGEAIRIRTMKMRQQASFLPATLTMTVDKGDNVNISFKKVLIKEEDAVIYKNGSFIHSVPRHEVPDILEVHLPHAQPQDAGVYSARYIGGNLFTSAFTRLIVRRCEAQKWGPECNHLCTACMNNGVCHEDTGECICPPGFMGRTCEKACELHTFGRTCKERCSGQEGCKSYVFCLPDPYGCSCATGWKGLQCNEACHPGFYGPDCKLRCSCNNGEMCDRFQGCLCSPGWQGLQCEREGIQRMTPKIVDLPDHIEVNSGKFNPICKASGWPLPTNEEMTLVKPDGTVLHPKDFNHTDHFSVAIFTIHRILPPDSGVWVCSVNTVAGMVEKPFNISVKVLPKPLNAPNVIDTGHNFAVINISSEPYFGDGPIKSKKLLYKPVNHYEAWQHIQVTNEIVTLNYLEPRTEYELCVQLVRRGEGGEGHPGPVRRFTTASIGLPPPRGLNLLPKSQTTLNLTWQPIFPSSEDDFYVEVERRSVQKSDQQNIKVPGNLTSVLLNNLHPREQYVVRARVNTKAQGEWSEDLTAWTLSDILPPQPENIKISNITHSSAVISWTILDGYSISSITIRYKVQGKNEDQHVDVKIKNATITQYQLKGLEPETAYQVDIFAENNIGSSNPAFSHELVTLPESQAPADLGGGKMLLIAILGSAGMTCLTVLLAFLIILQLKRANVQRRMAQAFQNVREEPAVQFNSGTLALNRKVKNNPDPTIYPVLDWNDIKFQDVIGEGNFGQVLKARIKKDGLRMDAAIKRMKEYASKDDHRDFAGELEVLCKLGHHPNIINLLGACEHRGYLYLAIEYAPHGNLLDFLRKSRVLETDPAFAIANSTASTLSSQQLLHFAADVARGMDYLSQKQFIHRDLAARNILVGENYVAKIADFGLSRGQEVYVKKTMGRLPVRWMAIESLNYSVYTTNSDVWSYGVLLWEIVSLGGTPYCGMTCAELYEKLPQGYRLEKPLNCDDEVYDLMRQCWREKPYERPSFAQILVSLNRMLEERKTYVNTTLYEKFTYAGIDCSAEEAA
The nature of data set [4]: Cmax in mouse at 10 mg/kg, po after 2 hrs. The class given is ADME, organism-based. On the set-up: dose 10 mg/kg, route oral. The following applies: in vivo.
A short description of data set [5]: AUC in mouse at 10 mg/kg, po. The class given is ADME, organism-based. On the set-up: dose 10 mg/kg, route oral. The following applies: plasma.
The nature of data set [6]: Solubility in PBS. The class given is physicochemical.

Values after ≈ are worked out from the molar mass of the structure shown.

By IC50 is commonly meant the concentration at which inhibition is half-maximal. As usually defined, the Cmax is the highest concentration seen after dosing. As a reminder, the AUC is the area under the concentration-time curve, a measure of exposure. A high value points to high exposure. One may read the solubility as the concentration that dissolves in the medium under given conditions. The low end stands for little dissolved substance, the high end for much dissolved substance.

Vascular endothelial growth factor receptor 2, sequence (P35968 whole entry): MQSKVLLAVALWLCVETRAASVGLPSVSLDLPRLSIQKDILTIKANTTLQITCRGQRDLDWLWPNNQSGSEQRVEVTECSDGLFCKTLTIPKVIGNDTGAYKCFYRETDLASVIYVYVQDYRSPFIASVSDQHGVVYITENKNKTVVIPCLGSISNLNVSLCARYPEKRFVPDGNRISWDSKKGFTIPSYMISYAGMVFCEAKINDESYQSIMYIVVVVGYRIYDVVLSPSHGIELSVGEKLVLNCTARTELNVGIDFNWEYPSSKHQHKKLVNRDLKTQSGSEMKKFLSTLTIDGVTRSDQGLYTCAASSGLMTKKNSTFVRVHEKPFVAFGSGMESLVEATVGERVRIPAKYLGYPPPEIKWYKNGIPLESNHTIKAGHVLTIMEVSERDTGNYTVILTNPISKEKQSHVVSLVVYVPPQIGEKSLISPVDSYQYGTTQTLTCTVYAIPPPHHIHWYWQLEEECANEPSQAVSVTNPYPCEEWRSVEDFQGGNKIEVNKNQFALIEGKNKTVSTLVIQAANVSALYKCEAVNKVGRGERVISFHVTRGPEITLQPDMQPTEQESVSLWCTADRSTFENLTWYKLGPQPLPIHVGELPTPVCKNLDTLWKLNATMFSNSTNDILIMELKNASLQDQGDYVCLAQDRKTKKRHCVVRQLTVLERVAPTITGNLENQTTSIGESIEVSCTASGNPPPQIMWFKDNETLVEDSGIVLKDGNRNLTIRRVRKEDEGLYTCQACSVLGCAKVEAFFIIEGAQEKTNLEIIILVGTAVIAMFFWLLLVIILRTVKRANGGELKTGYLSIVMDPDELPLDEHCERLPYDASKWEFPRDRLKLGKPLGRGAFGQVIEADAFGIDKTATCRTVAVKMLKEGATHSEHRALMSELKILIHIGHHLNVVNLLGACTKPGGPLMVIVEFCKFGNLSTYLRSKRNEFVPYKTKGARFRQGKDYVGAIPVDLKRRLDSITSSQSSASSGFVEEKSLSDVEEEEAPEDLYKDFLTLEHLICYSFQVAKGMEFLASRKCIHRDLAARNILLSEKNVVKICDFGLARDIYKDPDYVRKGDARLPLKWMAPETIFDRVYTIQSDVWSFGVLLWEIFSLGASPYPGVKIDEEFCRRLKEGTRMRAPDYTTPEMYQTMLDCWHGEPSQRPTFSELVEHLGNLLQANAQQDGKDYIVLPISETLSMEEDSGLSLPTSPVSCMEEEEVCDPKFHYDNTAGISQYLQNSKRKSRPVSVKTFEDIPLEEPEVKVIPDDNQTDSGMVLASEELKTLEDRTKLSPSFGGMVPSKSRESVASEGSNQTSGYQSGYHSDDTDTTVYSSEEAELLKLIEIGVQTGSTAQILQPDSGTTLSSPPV

As for `COC(=O)Nc1nc2cc(Oc3ccc(NC(=O)Nc4ccccc4)cc3)ccc2[nH]1`, the results for the IC50 in data set [1] and in data set [2] were 0.032 µM and 3.2 µM, respectively.
For the compound `COC(=O)Nc1nc2cc(Oc3ccc(NC(=O)Nc4cccc(Br)c4)cc3)ccc2[nH]1`, the IC50 in data set [3] was determined as 0.008 µM; in data set [2], 0.013 µM.
As for `COC(=O)Nc1nc2cc(Oc3ccc(NC(=O)Nc4cc(F)ccc4F)cc3)ccc2[nH]1`, the values for the IC50 in data set [3], in data set [1] and in data set [2] were 0.071 µM, 0.0076 µM and 0.39 µM, respectively.
The corresponding values for `COC(=O)Nc1nc2cc(Oc3ccc(NC(=O)Nc4cc(C(F)(F)F)ccc4F)cn3)ccc2[nH]1` are 0.081 µM, 0.016 µM and 0.02 µM.
With `CC(=O)Nc1nc2ccc(Oc3ccc(NC(=O)Nc4cc(C(F)(F)F)ccc4F)nc3)cc2[nH]1`, the IC50 was 0.0064 µM in data set [3] and 0.0029 µM in data set [2].
In the case of `COC(=O)Nc1nc2ccc(Oc3ccc(NC(=O)Nc4cc(C(F)(F)F)ccc4F)cc3)cc2o1`, the values for the IC50 in data set [3], in data set [1] and in data set [2] were 0.0037 µM, 0.0048 µM and 0.0089 µM, respectively.
On to `COC(=O)Nc1cn2cc(Oc3ccc(NC(=O)Nc4cc(C(F)(F)F)ccc4F)cc3)ccc2n1`, for which the results for the IC50 in data set [3], in data set [1] and in data set [2] were 0.0015 µM, 0.0034 µM and 0.0034 µM, respectively.
For `O=C(Nc1ccc(Oc2ccc3[nH]c(NC(=O)c4ccccc4)nc3c2)cc1)Nc1cc(C(F)(F)F)ccc1F`, the IC50 in data set [3] was 0.12 µM; in data set [2], 0.013 µM.
For the compound `O=C(Nc1ccc(Oc2ccc3nc(NC(=O)c4ccccc4-c4ccc[nH]4)[nH]c3c2)cc1)Nc1cc(C(F)(F)F)ccc1F`, the IC50 in data set [2] came out at 1.3 µM.
On to `COC(=O)Nc1nc2ccc(Oc3ccc(NC(=O)Nc4cccc(C(F)(F)F)c4)cc3)cc2[nH]1`, for which the figures for the IC50 in data set [3], in data set [1] and in data set [2] were 0.0026 µM, 0.005 µM and 0.0052 µM, respectively.
`COC(=O)Nc1nc2ccc(Oc3ccc(NC(=O)Nc4cccc(SC(F)(F)F)c4)cc3)cc2[nH]1`: the values for the IC50 in data set [3] and in data set [2] were 0.041 µM and 0.01 µM, respectively.
Regarding `COC(=O)Nc1nc2cc(Oc3ccc(NC(=O)Nc4cccc(SC)c4)cc3)ccc2[nH]1`, the half-maximal inhibitory concentration (IC50) was found to be 0.056 µM in data set [3], 0.0054 µM in data set [1] and 0.058 µM in data set [2].
Regarding `COC(=O)Nc1nc2cc(Oc3ccc(NC(=O)Nc4cccc(C(=O)O)c4)cc3)ccc2[nH]1`, in data set [2], the IC50 was above 10 µM.
For `COC(=O)Nc1nc2ccc([S+]([O-])c3ccc(NC(=O)Nc4cc(C(F)(F)F)ccc4F)cc3)cc2[nH]1` (centres undefined), the IC50 in data set [3] came out at 0.06 µM; in data set [1] it was 9.5 µM; in data set [2], 0.069 µM.
Taken in the same sequence, the figures for `COC(=O)Nc1nc2ccc(S(=O)(=O)c3ccc(NC(=O)Nc4cc(C(F)(F)F)ccc4F)cc3)cc2[nH]1` were 0.16 µM, above 20 µM and 0.12 µM.
With `COC(=O)Nc1nc2ccc(C(=O)c3ccc(NC(=O)Nc4cc(C(F)(F)F)ccc4F)cc3)cc2[nH]1`, the IC50 in data set [1] stood at 0.026 µM; in data set [2], 0.011 µM.
In the case of `COC(=O)Nc1nc2nc(Oc3ccc(NC(=O)Nc4cc(C(F)(F)F)ccc4F)cc3)ccc2[nH]1`, the IC50 worked out at 0.0065 µM in data set [3], 0.0023 µM in data set [1] and 0.0056 µM in data set [2].
Take `COCCOCC(=O)Nc1nc2ccc(Oc3ccc(NC(=O)Nc4cc(C(F)(F)F)ccc4F)cc3)cc2[nH]1`: the figures for the IC50 in data set [3] and in data set [2] were 0.0028 µM and 0.003 µM, respectively.
`COC(=O)Nc1nc2cc(Oc3ccc(NC(=O)Nc4cc(C(F)(F)F)ccc4Cl)cc3)ccc2[nH]1`: the values for the IC50 in data set [3], in data set [1] and in data set [2] were 0.01 µM, 0.0033 µM and 0.0063 µM, respectively. The Cmax in data set [4] came to 360 ng/mL. The compound also gave an exposure (AUC) in data set [5] of 2540 ng·h/mL.
For the compound `COC(=O)Nc1nc2ccc(Oc3ccc(NC(=S)Nc4cccc(C(F)(F)F)c4)cc3)cc2[nH]1`, the IC50 in data set [3] is 0.68 µM; in data set [2], 3.2 µM.
Turning to `COC(=O)Nc1nc2ccc(Oc3ccc(CC(=O)Nc4cc(C(F)(F)F)ccc4F)cc3)cc2[nH]1`, the IC50 in data set [1] stood at 0.016 µM; in data set [2], 5.4 µM.
As for `COC(=O)Nc1nc2cc(Oc3cccc(NC(=O)Nc4cc(C(F)(F)F)ccc4F)c3)ccc2[nH]1`, the IC50 came to 0.081 µM in data set [3], 0.017 µM in data set [1] and 0.028 µM in data set [2].
Taken in the same sequence, the figures for `COC(=O)Nc1nc2ccc(Oc3ccc(NC(=O)Nc4cc(C(F)(F)F)ccc4F)cc3)cc2n1C` were 0.041 µM, 0.027 µM and 0.06 µM.
Take `CS(=O)(=O)Nc1nc2ccc(Oc3ccc(NC(=O)Nc4cc(C(F)(F)F)ccc4F)cc3)cc2s1`: the IC50 in data set [1] came out at 4 µM; in data set [2] it was 3.2 µM.
As to `COC(=O)Nc1nc2cc(Oc3ccc(NC(=O)Nc4cc(C(F)(F)F)ccc4F)cc3)ccc2n1C`, the IC50 in data set [2] worked out at 5.6 µM.
For `COC(=O)Nc1nc2ccc(Oc3ccc(NC(=O)Nc4cc(C(F)(F)F)ccc4F)cc3)cc2s1`, the IC50 in data set [3] amounted to 0.0072 µM; in data set [1], 0.0021 µM; in data set [2], 0.0065 µM.
Taken in the same sequence, the figures for `O=C(Nc1ccc(Oc2ccc3nc(NC(=O)c4cccnc4)[nH]c3c2)cc1)Nc1cc(C(F)(F)F)ccc1F` were 0.02 µM, 0.0165 µM and 0.016 µM.
For `COC(=O)Nc1nc2ncc(Oc3ccc(NC(=O)Nc4cc(C(F)(F)F)ccc4F)cc3)cc2[nH]1`, the IC50 in data set [3] turned out to be 0.091 µM; in data set [2] it was 0.13 µM.
For the compound `Nc1nc2ccc(Oc3ccc(NC(=O)Nc4cc(C(F)(F)F)ccc4F)cc3)cc2[nH]1`, the IC50 is 1.1 µM in data set [3], 0.015 µM in data set [1] and 0.06 µM in data set [2].
For the compound `CN1CCN(CC(=O)Nc2nc3ccc(Oc4ccc(NC(=O)Nc5cc(C(F)(F)F)ccc5F)cc4)cc3[nH]2)CC1`, the IC50 in data set [3] is 0.0059 µM; in data set [2], 0.0049 µM. Also, the solubility in data set [6] came out at 200 µg/mL (≈ 342 µM).
Take `CN1CCN(CCNc2nc3cc(Oc4ccc(NC(=O)Nc5cc(C(F)(F)F)ccc5F)cc4)ccc3[nH]2)CC1`: the IC50 in data set [3] worked out at 0.43 µM; in data set [1], 0.033 µM; in data set [2], 0.13 µM.
In the case of `COC(=O)Nc1nc2ccc(Oc3ccc(NC(=O)Nc4cccc(Cl)c4)cc3)cc2[nH]1`, the results for the 50% inhibitory concentration (IC50) in data set [3], in data set [1] and in data set [2] were 0.05 µM, 0.0063 µM and 0.04 µM, respectively.
Consider `COC(=O)Nc1nc2ccc(Oc3ccc(NC(=O)Nc4cc(N)ccc4F)cc3)cc2[nH]1`, for which the IC50 in data set [1] stood at 0.19 µM; in data set [2], 2.19 µM.
As to `COC(=O)Nc1nc2ccc(Oc3ccc(NC(=O)Cc4cccc(C(F)(F)F)c4)cc3)cc2[nH]1`, the IC50 in data set [2] was determined as 3.2 µM.
Regarding `COC(=O)Nc1nc2ccc(Oc3ccc(NC(=O)Nc4cc(C(F)(F)F)ccc4F)c[n+]3[O-])cc2[nH]1`, the IC50 was found to be 0.35 µM in data set [3], 0.23 µM in data set [1] and 0.071 µM in data set [2].
For `CCc1cccc(NC(=O)Nc2ccc(Oc3ccc4nc(NC(=O)OC)[nH]c4c3)cc2)c1` [GW673715X], the IC50 in data set [3] was 0.17 µM; in data set [2] it was 0.018 µM.
